Results taken from patent publication US20100150911A1, “METHODS AND SYSTEMS OF TREATING AGE-RELATED MACULAR-DEGENERATION” (OPTO GLOBAL HOLDINGS PTY LTD, priority 2007, published 2010).

Test system: subfoveal choroidal neovascularization (CNV) secondary to age-related macular degeneration (AMD)
Assay: Indocyanine green mediated photothrombosis (i-MP) with and without intravitreal Bevacizumab in patients (Example 4)
Format: in vivo, human

i-MP+intravitreal Bevacizumab: i-MP combined with an intravitreal injection of Bevacizumab (Avastin), an anti-VEGF compound
need to perform a second treatment session (10 months of follow-up, 25 eyes): not required | eyes with improvement of the visual acuity in 2 lines (Group B: almost 2 lines) with staining in the fluorescein angiography (10 months of follow-up, 25 eyes per group): 68% | response of the choroidal neovascular membranes (fluorescein angiography and OCT) (10 months of follow-up, compared with i-MP alone): responded better | visual acuity obtained by a single patient (left eye, occult CNV, visual acuity 0.1 before treatment, 10 months after treatment): 0.3
